# Where “and” joins values, the source holds several entries; their conditions need not be identical. Equal values may be shown once.
# What was measured:
# Type in all cases: cell-based
# A549 cells (control) = assay: Cell viability assay (CellTiter-Glo), normal A549 (control); details: for raw luminescence reading / control inhibiton rate: A549 control, single wells
# Method: The cell lines Jurkat (TIB-152), El4 (TIB-39), Daudi (ccl-213), RS4:11 (crl-1873), A549 (ccl-185), HepG2 (hb-8065) and PANC-1 (crl-1469) were purchased from ATCC (American Type Culture Collection), and MGC-803 (C6582) was purchased from Beyotime (https://www.beyotime.com/product/C6582.htm). […] Daudi and RS4:11 cells were cultured in RPMI-1640 medium (HyClone, SH30809.01) and 10% FBS (Gibco, 10099-141), whereas HepG2, MGC-803 and PANC-1 cells were cultured in MDEM (HyClone, SH30243.01). Cells were maintained at 37 °C under a humidified, 5% (v/v) CO2-containing atmosphere.
# (§1) Cell viability was measured using CellTiter-Glo® 2.0 Reagent (Promega, G9242). […] After different inhibitors were added into serum-free medium and cultured for 4 h (RS4:11 for 6 h), FBS were supplemented to 10% and then incubated totally for 24 h or 48 h. Finally, the IC50 values were calculated based on measurements using a microplate reader (Thermo, Varioskan LUX). Statistical analysis was performed using software GraphPad Prism 7.0.
# [1] = system: A549 cells overexpressing BCL-2 G101V; assay: Cell viability assay, A549 stably overexpressing BCL-2 G101V; details: A549 BCL2/G101V, single wells
# Method: as §1
# Lentivirus packaging vectors pMDLg/pRRE, pRSV-Rev, and pVSV-G were obtained from Prof. Han Jiahuai’s lab (Xiamen University). Lentiviruses were produced using 3rd-generation lentivirus packaging plasmids transiently transfected into HEK293T cells with the constructs of interest using 0.25 M CaCl2. Media was changed after 16 h, and supernatants containing infectious virus particles were harvested 24 h later. A second viral harvest was made following a further 24 h incubation with fresh media. Virus containing supernatant was filtered through a […], and stored at 4 °C or −80 °C until being used. Typically, A549 cells were seeded into 10 cm cell culture dishes at 4 ~ 8 × 10^5 cells/cm^2. An equivalent volume of virus containing culture medium was added along with polybrene (Sigma) to a final concentration of 10 µg/mL. Cells were incubated at 37 °C for 20 h, before they were washed and resuspended in fresh culture media. The expression level of BCL-2 was measured by qPCR and western blot methods.
# Jurkat cells = assay: Cell viability assay (CellTiter-Glo), Jurkat
# Method in brief: (§2)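 Compounds added in serum-free medium for 4 h (RS4:11: 6 h), then FBS brought to 10% and incubation continued to 24 h or 48 h total at 37 °C, 5% CO2. Viability by CellTiter-Glo 2.0 luminescence; IC50 calculated.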
# Daudi cells = assay: Cell viability assay (CellTiter-Glo), Daudi; details: for raw viability signal, replicates: Daudi
# Method in brief: as §2
# RS4:11 cells = assay: Cell viability assay (CellTiter-Glo), RS4:11; details: for raw luminescence reading / inhibition rate: RS4:11, single wells
# Method in brief: as §2
structure (smiles),measurement,setting,value
O=C(c1cc(-c2cc3c(cc2C(=O)N2Cc4ccccc4C[C@H]2CN2CCOCC2)OCO3)n2c1CCCC2)N(c1ccccc1)c1ccc(O)cc1 [S55746],IC50,"A549 cells (control); 48 h, CellTiter-Glo, n = 6, read-out: IC50 A549 control (original cells)",74.1 ± 4.5 µM
same,raw luminescence reading,A549 cells (control); 3.125 uM,680400 and 663400 and 563700 and 629300 and 626800 and 613100
same,raw luminescence reading,A549 cells (control); 6.25 uM,624000 and 698000 and 600600 and 640100 and 681300 and 637500
same,raw luminescence reading,A549 cells (control); 12.5 uM,490700 and 564100 and 465600 and 496900 and 544400 and 512100
same,control inhibiton rate,A549 cells (control); 25 uM,29% and 19% and 33% and 30% and 20% and 28%
same,raw luminescence reading,A549 cells (control); 25 uM,465600 and 531000 and 436600 and 460300 and 522200 and 471500
same,control inhibiton rate,A549 cells (control); 50 uM,45% and 39% and 47% and 38% and 42%
same,raw luminescence reading,A549 cells (control); 50 uM,357700 and 400600 and 345700 and 358400 and 403100 and 379300
same,control inhibiton rate,A549 cells (control); 100 uM,58% and 52% and 57% and 50% and 55%
same,raw luminescence reading,A549 cells (control); 100 uM,277600 and 315100 and 274100 and 282200 and 324600 and 296100
same,control inhibiton rate,A549 cells (control); 200 uM,64% and 60% and 63% and 57% and 61%
same,raw luminescence reading,A549 cells (control); 200 uM,232800 and 260700 and 234900 and 239800 and 281200 and 257400
same,BCL2/G101V inhibiton rate,[1]; 3.125 uM,8% and 4.44% and 2.43% and 0.638% and 1% and 2%
same,raw luminescence reading,[1]; 3.125 uM,671600 and 698900 and 713600 and 726700 and 723800 and 716000
same,BCL2/G101V inhibiton rate,[1]; 6.25 uM,13% and 10% and 7.56% and 8% and 9%
same,raw luminescence reading,[1]; 6.25 uM,633100 and 639000 and 656800 and 676100 and 673100 and 668300
same,BCL2/G101V inhibiton rate,[1]; 12.5 uM,26% and 24% and 22% and 23% and 21%
same,raw luminescence reading,[1]; 12.5 uM,539700 and 558400 and 568300 and 571800 and 566400 and 579500
same,BCL2/G101V inhibiton rate,[1]; 25 uM,24% and 23% and 22% and 21%
same,raw luminescence reading,[1]; 25 uM,553400 and 560600 and 571800 and 579800 and 580700 and 578200
same,BCL2/G101V inhibiton rate,[1]; 50 uM,39% and 38% and 36% and 35% and 34%
same,raw luminescence reading,[1]; 50 uM,444500 and 453000 and 466400 and 464700 and 472100 and 479600
same,BCL2/G101V inhibiton rate,[1]; 100 uM,46% and 45% and 42%
same,raw luminescence reading,[1]; 100 uM,392800 and 395900 and 399700 and 397700 and 405800 and 422300
same,BCL2/G101V inhibiton rate,[1]; 200 uM,48% and 49% and 45% and 44%
same,raw luminescence reading,[1]; 200 uM,382600 and 370800 and 376000 and 400600 and 410900
same,"raw viability signal, replicates",Jurkat cells; 1.5625 uM,1714000 and 1704000 and 1684000 and 1696000 and 1705000 and 1721000
same,"raw viability signal, replicates",Jurkat cells; 3.125 uM,1448000 and 1401000 and 1343000 and 1377000 and 1375000 and 1402000
same,"raw viability signal, replicates",Jurkat cells; 6.25 uM,1130000 and 1065000 and 1037000 and 1061000 and 1063000 and 1084000
same,"raw viability signal, replicates",Jurkat cells; 12.5 uM,892300 and 842800 and 825800 and 842200 and 844000 and 860800
same,"raw viability signal, replicates",Jurkat cells; 25 uM,395000 and 492300 and 419200 and 469600 and 467400 and 468800
same,"raw viability signal, replicates",Jurkat cells; 50 uM,146000 and 160200 and 184200 and 190000 and 211800 and 228200
same,IC50,"Daudi cells; 48 h treatment, CellTiter-Glo",10 ± 0.4 µM
same,"raw viability signal, replicates",Daudi cells; 3.125 uM,1593 and 1426 and 1310 and 1450 and 1626 and 1878
same,"raw viability signal, replicates",Daudi cells; 6.25 uM,1078 and 1072 and 931.3 and 1127 and 973.9 and 1033
same,"raw viability signal, replicates",Daudi cells; 12.5 uM,455.5 and 506.4 and 780.1 and 751.1 and 919.0 and 638.7
same,"raw viability signal, replicates",Daudi cells; 25 uM,431.3 and 645.0 and 475.8 and 693.5 and 515.7 and 555.5
same,"raw viability signal, replicates",Daudi cells; 50 uM,362.9 and 364.8 and 354.3 and 237.1 and 424.9 and 407.4
same,"raw viability signal, replicates",Daudi cells; 100 uM,330.6 and 360.1 and 410.7 and 529.9 and 565.2 and 706.1
same,IC50,"RS4:11 cells; 48 h treatment, CellTiter-Glo, small-molecule inhibitors, cells marked (nM)",4.5 ± 0.1 nM
same,raw luminescence reading,RS4:11 cells; 2.44141 nM,232300 and 260200 and 275600 and 316000 and 308700 and 306800
same,raw luminescence reading,RS4:11 cells; 4.88281 nM,135300 and 123100 and 129200 and 110700 and 132100 and 115900
same,inhibition rate,"RS4:11 cells; 4.88281 nM, 0.00488281 µM",53% and 57% and 55% and 61% and 54% and 59%
same,raw luminescence reading,RS4:11 cells; 9.76562 nM,75370 and 71000 and 72070 and 63170 and 68200 and 61260
same,inhibition rate,"RS4:11 cells; 9.76562 nM, 0.00976562 µM",74% and 75% and 78% and 76% and 79%
same,raw luminescence reading,RS4:11 cells; 19.5312 nM,38320 and 36520 and 36660 and 31950 and 34870 and 31060
same,inhibition rate,"RS4:11 cells; 19.5312 nM, 0.0195312 µM",87% and 89% and 88%
same,raw luminescence reading,RS4:11 cells; 39.0625 nM,14610 and 13790 and 14580 and 12190 and 12650 and 12610
same,inhibition rate,"RS4:11 cells; 39.0625 nM, 0.0390625 µM",95% and 96%
same,raw luminescence reading,RS4:11 cells; 78.125 nM,4289 and 3678 and 4541 and 3543 and 3931 and 3419
same,inhibition rate,"RS4:11 cells; 78.125 nM, 0.078125 µM",98% and 99%
same,raw luminescence reading,RS4:11 cells; 156.25 nM,1268 and 1101 and 1335 and 1644 and 1000 and 916.1
same,inhibition rate,"RS4:11 cells; 156.25 nM, 0.15625 µM",100% and 99%
same,inhibition rate,RS4:11 cells; 312.5 nM,100%
same,raw luminescence reading,RS4:11 cells; 312.5 nM,809.8 and 810.5 and 948.9 and 960.0 and 1116 and 1097
same,inhibition rate,RS4:11 cells; 625 nM,99%
same,raw luminescence reading,RS4:11 cells; 625 nM,1448 and 1571 and 1720 and 1855 and 1831 and 2149
same,inhibition rate,RS4:11 cells; 1250 nM,100%
same,raw luminescence reading,RS4:11 cells; 1250 nM,256.4 and 322.1 and 360.1 and 295.0 and 378.2 and 348.9
same,inhibition rate,RS4:11 cells; 2500 nM,100%
same,raw luminescence reading,RS4:11 cells; 2500 nM,334.6 and 379.8 and 329.3 and 445.4 and 358.3 and 346.2
same,inhibition rate,RS4:11 cells; 5000 nM,100%
same,inhibition rate,RS4:11 cells; 10000 nM,100%
same,raw luminescence reading,RS4:11 cells; 10000 nM,297.6 and 210.5 and 312.1 and 264.1 and 325.8 and 327.8
